Assay results as given in ChEMBL document CHEMBL3046389, “Synthesis and biological evaluation of novel hydroquinone dimethyl ethers as potential anticancer and antimicrobial agents” (2013).
In brackets after ≈: the same amount, converted by molar mass.

Key:
Format in all cases: functional
HOP-62 [1] = experiment: Anticancer activity against Homo sapiens (human) HOP62 cells after 48 hr by SRB assay; details: HOP-62, 48 h; for CC50: read-out: LC50 (the source's name)
A549 = experiment: Anticancer activity against Homo sapiens (human) A549/ATCC cells after 48 hr by SRB assay; details: A549, 48 h; for CC50: read-out: LC50 (the source's name)
MOLT-4 [2] = experiment: Anticancer activity against Homo sapiens (human) MOLT4 cells after 48 hr by SRB assay; details: MOLT-4, 48 h; for CC50: read-out: LC50 (the source's name)
RPMI-8226 = experiment: Anticancer activity against Homo sapiens (human) RPMI8226 cells after 48 hr by SRB assay; details: RPMI-8226, 48 h; for CC50: read-out: LC50 (the source's name)
K562 = experiment: Anticancer activity against Homo sapiens (human) K562 cells after 48 hr by SRB assay; details: K562, 48 h; for CC50: read-out: LC50 (the source's name)
NCI-H460 = experiment: Growth inhibition of Homo sapiens (human) NCI-H460 cells at 10 uM after 48 hr by SRB assay; details: NCI-H460, 48 h, read-out: GI
MDA-MB-468 = experiment: Growth inhibition of Homo sapiens (human) MDA-MB-468 cells at 10 uM after 48 hr by SRB assay; details: MDA-MB-468, 48 h, read-out: GI
Pseudomonas aeruginosa = experiment: Antimicrobial activity against Pseudomonas aeruginosa ATCC 10145 after 48 hr by two-fold serial broth dilution method; details: ATCC 10145, 48 h
SNB-75 = experiment: Anticancer activity against Homo sapiens (human) SNB75 cells after 48 hr by SRB assay; details: SNB-75, 48 h; for CC50: read-out: LC50 (the source's name)
SW-620 = experiment: Anticancer activity against Homo sapiens (human) SW620 cells after 48 hr by SRB assay; details: SW-620, 48 h; for CC50: read-out: LC50 (the source's name)
HCT-15 = experiment: Anticancer activity against Homo sapiens (human) HCT15 cells after 48 hr by SRB assay; details: HCT-15, 48 h; for CC50: read-out: LC50 (the source's name)
HCT-116 = experiment: Anticancer activity against Homo sapiens (human) HCT116 cells after 48 hr by SRB assay; details: HCT-116, 48 h; for CC50: read-out: LC50 (the source's name)
HCC 2998 = experiment: Anticancer activity against Homo sapiens (human) HCC2998 cells after 48 hr by SRB assay; details: HCC 2998, 48 h; for CC50: read-out: LC50 (the source's name)
NCI-H522 = experiment: Anticancer activity against Homo sapiens (human) NCI-H522 cells after 48 hr by SRB assay; details: NCI-H522, 48 h; for CC50: read-out: LC50 (the source's name)
MOLT-4 [3] = experiment: Growth inhibition of Homo sapiens (human) MOLT4 cells at 10 uM after 48 hr by SRB assay; details: MOLT-4, 48 h, read-out: GI
BT-549 = experiment: Anticancer activity against Homo sapiens (human) BT549 cells after 48 hr by SRB assay; details: BT-549, 48 h; for CC50: read-out: LC50 (the source's name)
Hs-578T [4] = experiment: Anticancer activity against Homo sapiens (human) Hs 578T cells after 48 hr by SRB assay; details: for CC50: read-out: LC50 (the source's name)
MDA-MB-231 = experiment: Anticancer activity against Homo sapiens (human) MDA-MB-231/ATCC cells after 48 hr by SRB assay; details: MDA-MB-231, 48 h; for CC50: read-out: LC50 (the source's name)
RXF 393 = experiment: Anticancer activity against Homo sapiens (human) RXF393 cells after 48 hr by SRB assay; details: RXF 393, 48 h
SK-OV-3 = experiment: Anticancer activity against Homo sapiens (human) SKOV3 cells after 48 hr by SRB assay; details: SK-OV-3, 48 h
NCI/ADR-RES = experiment: Anticancer activity against Homo sapiens (human) NCI/ADR-RES cells after 48 hr by SRB assay
OVCAR-8 = experiment: Anticancer activity against Homo sapiens (human) OVCAR8 cells after 48 hr by SRB assay; details: OVCAR-8, 48 h
UACC-62 = experiment: Anticancer activity against Homo sapiens (human) UACC62 cells after 48 hr by SRB assay; details: UACC-62, 48 h
UACC-257 = experiment: Anticancer activity against Homo sapiens (human) UACC257 cells after 48 hr by SRB assay; details: UACC-257, 48 h
M14 = experiment: Anticancer activity against Homo sapiens (human) M14 cells after 48 hr by SRB assay; details: M14, 48 h
U-251 = experiment: Growth inhibition of Homo sapiens (human) U251 cells at 10 uM after 48 hr by SRB assay; details: U-251, 48 h, read-out: GI
SF-295 = experiment: Growth inhibition of Homo sapiens (human) SF295 cells at 10 uM after 48 hr by SRB assay; details: SF-295, 48 h, read-out: GI
KM12 = experiment: Growth inhibition of Homo sapiens (human) KM12 cells at 10 uM after 48 hr by SRB assay; details: KM12, 48 h, read-out: GI
HT-29 = experiment: Growth inhibition of Homo sapiens (human) HT-29 cells at 10 uM after 48 hr by SRB assay; details: HT-29, 48 h, read-out: GI
T47D = experiment: Growth inhibition of Homo sapiens (human) T47D cells at 10 uM after 48 hr by SRB assay; details: read-out: GI
Hs-578T [5] = experiment: Growth inhibition of Homo sapiens (human) Hs 578T cells at 10 uM after 48 hr by SRB assay; details: read-out: GI
HOP-62 [6] = experiment: Growth inhibition of Homo sapiens (human) HOP62 cells at 10 uM after 48 hr by SRB assay; details: HOP-62, 48 h, read-out: GI

Structure (SMILES): COc1ccc(OC)c(/C=C/c2nnc(S)n2-c2ccc(Cl)cc2)c1
- GI50 (HOP-62 [1]): 6.48 µM
- TGI (HOP-62 [1]): > 100 µM
- CC50 (HOP-62 [1]): > 100 µM
- GI50 (A549): 9.07 µM
- TGI (A549): > 100 µM
- CC50 (A549): > 100 µM
- GI50 (MOLT-4 [2]): 7.74 µM
- TGI (MOLT-4 [2]): > 100 µM
- CC50 (MOLT-4 [2]): > 100 µM
- GI50 (RPMI-8226): 5.22 µM
- TGI (RPMI-8226): > 100 µM
- CC50 (RPMI-8226): > 100 µM
- GI50 (K562): 4.95 µM
- TGI (K562): > 100 µM
- CC50 (K562): > 100 µM
- inhibition of growth at 10 µM (NCI-H460): 61.1%
- inhibition of growth at 10 µM (MDA-MB-468): 61.2%
- MBC (Pseudomonas aeruginosa): 100 µg/mL (≈ 267 µM)
- MIC (Pseudomonas aeruginosa): 50 µg/mL (≈ 134 µM)
- GI50 (SNB-75): 2.85 µM
- TGI (SNB-75): > 100 µM
- CC50 (SNB-75): > 100 µM
- GI50 (SW-620): 5.09 µM
- TGI (SW-620): > 100 µM
- CC50 (SW-620): > 100 µM
- GI50 (HCT-15): 4.39 µM
- TGI (HCT-15): > 100 µM
- CC50 (HCT-15): > 100 µM
- GI50 (HCT-116): 4.05 µM
- TGI (HCT-116): > 100 µM
- CC50 (HCT-116): > 100 µM
- GI50 (HCC 2998): 13.3 µM
- TGI (HCC 2998): > 100 µM
- CC50 (HCC 2998): > 100 µM
- GI50 (NCI-H522): 4.07 µM
- TGI (NCI-H522): > 100 µM
- CC50 (NCI-H522): > 100 µM
- inhibition of growth at 10 µM (MOLT-4 [3]): 47.2%
- GI50 (BT-549): 9.38 µM
- TGI (BT-549): > 100 µM
- CC50 (BT-549): > 100 µM
- GI50 (Hs-578T [4]): 3.1 µM
- TGI (Hs-578T [4]): > 100 µM
- CC50 (Hs-578T [4]): > 100 µM
- GI50 (MDA-MB-231): 14.5 µM
- TGI (MDA-MB-231): > 100 µM
- CC50 (MDA-MB-231): > 100 µM
- GI50 (RXF 393): 3.38 µM
- LC50 (RXF 393): > 100 µM
- TGI (RXF 393): 38.7 µM
- GI50 (SK-OV-3): 9.4 µM
- LC50 (SK-OV-3): > 100 µM
- TGI (SK-OV-3): > 100 µM
- GI50 (NCI/ADR-RES): 3.63 µM
- LC50 (NCI/ADR-RES): > 100 µM
- TGI (NCI/ADR-RES): > 100 µM
- GI50 (OVCAR-8): 28.4 µM
- LC50 (OVCAR-8): > 100 µM
- TGI (OVCAR-8): > 100 µM
- GI50 (UACC-62): 3.11 µM
- LC50 (UACC-62): > 100 µM
- TGI (UACC-62): > 100 µM
- GI50 (UACC-257): > 100 µM
- LC50 (50% lethal concentration) (UACC-257): > 100 µM
- TGI (UACC-257): > 100 µM
- GI50 (M14): 4.24 µM
- LC50 (M14): > 100 µM
- TGI (M14): > 100 µM
- inhibition of growth at 10 µM (U-251): 46.7%
- inhibition of growth at 10 µM (SF-295): 68.8%
- inhibition of growth at 10 µM (KM12): 59.1%
- inhibition of growth at 10 µM (HT-29): 34.6%

Structure (SMILES): COc1ccc(OC)c(/C=C/c2nnc(Nc3ccc(Cl)cc3)o2)c1
- GI50 (HOP-62 [1]): 2.71 µM
- TGI (HOP-62 [1]): 7.68 µM
- CC50 (HOP-62 [1]): 38.9 µM
- GI50 (A549): 3.67 µM
- TGI (A549): 17.8 µM
- CC50 (A549): 78.6 µM
- GI50 (MOLT-4 [2]): > 100 µM
- TGI (MOLT-4 [2]): > 100 µM
- CC50 (MOLT-4 [2]): > 100 µM
- GI50 (RPMI-8226): > 100 µM
- TGI (RPMI-8226): > 100 µM
- CC50 (RPMI-8226): > 100 µM
- GI50 (K562): 92.8 µM
- TGI (K562): > 100 µM
- CC50 (K562): > 100 µM
- inhibition of growth at 10 µM (NCI-H460): 84.5%
- inhibition of growth at 10 µM (MDA-MB-468): 34%
- inhibition of growth at 10 µM (T47D): 105%
- inhibition of growth at 10 µM (Hs-578T [5]): 93.1%
- MBC (Pseudomonas aeruginosa): 100 µg/mL (≈ 279 µM)
- MIC (Pseudomonas aeruginosa): 100 µg/mL (≈ 279 µM)
- GI50 (SNB-75): 2.26 µM
- TGI (SNB-75): 7.94 µM
- CC50 (SNB-75): > 100 µM
- GI50 (SW-620): 18.3 µM
- TGI (SW-620): > 100 µM
- CC50 (SW-620): > 100 µM
- GI50 (HCT-15): 34.1 µM
- TGI (HCT-15): > 100 µM
- CC50 (HCT-15): > 100 µM
- GI50 (HCT-116): 2.97 µM
- TGI (HCT-116): 13.1 µM
- CC50 (HCT-116): > 100 µM
- GI50 (HCC 2998): > 100 µM
- TGI (HCC 2998): > 100 µM
- CC50 (HCC 2998): > 100 µM
- GI50 (NCI-H522): 7.13 µM
- TGI (NCI-H522): 83.7 µM
- CC50 (NCI-H522): > 100 µM
- inhibition of growth at 10 µM (HOP-62 [6]): 64.7%
- TGI (BT-549): > 100 µM
- CC50 (BT-549): > 100 µM
- GI50 (Hs-578T [4]): 2.71 µM
- TGI (Hs-578T [4]): 8.01 µM
- CC50 (Hs-578T [4]): > 100 µM
- GI50 (MDA-MB-231): 5.23 µM
- TGI (MDA-MB-231): 53.1 µM
- CC50 (MDA-MB-231): > 100 µM
- GI50 (RXF 393): 2.71 µM
- LC50 (RXF 393): 56.1 µM
- TGI (RXF 393): 7.92 µM
- GI50 (SK-OV-3): 2.79 µM
- LC50 (SK-OV-3): 60.6 µM
- TGI (SK-OV-3): 7.85 µM
- GI50 (NCI/ADR-RES): 7.62 µM
- LC50 (NCI/ADR-RES): > 100 µM
- TGI (NCI/ADR-RES): 98.1 µM
- GI50 (OVCAR-8): 4.91 µM
- LC50 (OVCAR-8): 76.4 µM
- TGI (OVCAR-8): 21 µM
- GI50 (UACC-62): 16.2 µM
- LC50 (UACC-62): > 100 µM
- TGI (UACC-62): > 100 µM
- GI50 (UACC-257): 21.3 µM
- LC50 (50% lethal concentration) (UACC-257): > 100 µM
- TGI (UACC-257): > 100 µM
- GI50 (M14): 20.7 µM
- LC50 (M14): > 100 µM
- TGI (M14): > 100 µM
- inhibition of growth at 10 µM (U-251): 58.2%
- inhibition of growth at 10 µM (SF-295): 53.1%
